Experimental data reported in US20260108641A1, “PHYTIC ACID-BASED TERNARY COMPLEX BIOMIMETIC NANOMATERIAL, AND PREPARATION METHOD AND USE THEREOF” (THE SECOND HOSPITAL OF TIAN JIN MEDICAL UNIVERSITY, priority 2023, published 2026).

Experiments:
[1] = test system: PC-3 tumor-bearing mouse model; assay: In vivo tumor inhibitory effect; parameters: species or system mice; details: day 14 after tail vein injection, controls PBS, CDDP, PA-Mn-BSA
Procedure: A PC-3 tumor-bearing mouse model was constructed. […] Tumor size was measured every other day for 14 consecutive days after injection to observe the tumor growth inhibitory effect in different groups. Tumors were dissected and collected from the mice on day 14 for size observation.

[2] = Safety evaluation, blood biochemical analysis; type: in vivo, Kunming mice; details: 24 hours after tail vein injection, versus PBS group
Procedure: Normal Kunming mice were selected, and PBS, CDDP, PA-Mn-BSA and PA-Mn/Pt-BSA were separately injected via the tail vein of the mice. Blood biochemical analysis was performed 24 hours later.

[NH2][Pt]([NH2])([Cl])[Cl] [CDDP, cisplatin]
tumor volume of dissected tumors [1]: smaller tumor volume than the PBS group
level of alanine transaminase (ALT) [2]: significantly higher
level of aspartate transaminase (AST) [2]: significantly higher
level of blood urea nitrogen (BUN) [2]: significantly higher
level of creatinine (CRE) [2]: significantly higher
